What was measured:
[1] = molecular target: brain serotonin 5-HT2 receptor (UniProt P14842); assay: In-vitro binding, brain serotonin 5-HT2 receptor; details: dihydrochloride salt; read-out: binding affinity for brain serotonin 5-HT2 receptor (K1)
dopamine D1 receptor = molecular target: T1, dopamine D1 receptor (Rattus norvegicus, UniProt P18901); assay: In-vitro binding, dopamine D1 receptor; details: dihydrochloride salt; read-out: binding affinity for dopamine D1 receptor (K1)
T1 construct: from tissue; host or cells: brain

dopamine D2 receptor = molecular target: T2, dopamine D2 receptor (Rattus norvegicus, UniProt P61169); assay: In-vitro binding, dopamine D2 receptor; details: dihydrochloride salt; read-out: binding affinity for dopamine D2 receptor (K1)
T2 construct: relative to dopamine (D2) receptors in the brain; from tissue; host or cells: brain
T2 sequence (P61169 whole entry): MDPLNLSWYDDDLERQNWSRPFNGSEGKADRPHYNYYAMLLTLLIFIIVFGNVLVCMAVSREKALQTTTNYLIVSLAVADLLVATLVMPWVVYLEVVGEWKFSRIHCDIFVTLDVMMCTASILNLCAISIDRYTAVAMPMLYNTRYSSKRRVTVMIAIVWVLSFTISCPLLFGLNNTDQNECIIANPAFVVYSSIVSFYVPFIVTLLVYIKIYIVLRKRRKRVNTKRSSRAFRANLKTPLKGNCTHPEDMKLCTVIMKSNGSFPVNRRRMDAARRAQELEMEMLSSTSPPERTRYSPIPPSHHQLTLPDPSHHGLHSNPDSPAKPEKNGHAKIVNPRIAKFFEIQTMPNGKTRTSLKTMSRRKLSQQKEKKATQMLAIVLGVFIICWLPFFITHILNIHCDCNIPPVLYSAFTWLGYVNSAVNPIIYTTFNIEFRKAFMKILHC

apomorphine climbing = assay: Standard apomorphine climbing mouse assay; format: in vivo; details: mice, p.o.
Description: (§1) An assessment of dopamine antagonism was made in rodent models.

immobility [2] = assay: Tail suspension test; format: in vivo, mice; details: for reduction of immobility relative to vehicle control group: p<0.01
Protocol: In a first experiment, mice (n−10/group) were treated with vehicle, 2.0, 5.0, or 10.0 mg/kg of 11-piperazin-1-yldibenzo[b,f][1,4]thiazepine s.c. 15 minutes prior to the test session. Mice were suspended from their tails for 7 minutes. During the last 5 minutes of the test, the duration of immobility was recorded. In a second experiment, mice (n=10/group) were treated with vehicle, 30 mg/kg 11-piperazin-1-yldibenzo[b,f][1,4]thiazepine, or 30 mg/kg fluoxetine p.o. 60 minutes prior to the test session. Mice were suspended from their tails for 7 minutes. During the last 5 minutes of the test, the duration of immobility was recorded.

[3] = test system: D-amphetamine locomotor activity; assay: D-amphetamine locomotor activity test; format: in vivo, rat; details: rats, s.c., freebase
Description: as §1

Adrenergic α1A = molecular target: T3, Adrenergic α1A (Rattus norvegicus, UniProt P43140); assay: Radioligand binding 203100 Adrenergic α1A
T3 construct: 203100
T3 sequence (P43140 whole entry): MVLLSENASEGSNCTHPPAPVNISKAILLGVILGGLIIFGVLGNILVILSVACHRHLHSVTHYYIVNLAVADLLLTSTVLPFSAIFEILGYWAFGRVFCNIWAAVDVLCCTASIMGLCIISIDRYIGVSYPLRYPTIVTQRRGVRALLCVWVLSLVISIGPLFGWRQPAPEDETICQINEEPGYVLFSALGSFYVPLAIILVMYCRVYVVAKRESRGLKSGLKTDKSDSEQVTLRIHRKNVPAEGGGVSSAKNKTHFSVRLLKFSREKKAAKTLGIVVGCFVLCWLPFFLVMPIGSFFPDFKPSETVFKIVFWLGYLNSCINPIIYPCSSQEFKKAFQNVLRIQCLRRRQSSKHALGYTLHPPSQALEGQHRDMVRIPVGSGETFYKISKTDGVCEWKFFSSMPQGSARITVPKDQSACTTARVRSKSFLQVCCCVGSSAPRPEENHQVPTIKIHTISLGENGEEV
Description: (§2) Receptor binding methods, α-adrenergic subtype specific, are provided below.

Adrenergic α1B = molecular target: T4, Adrenergic α1B (Rattus norvegicus, UniProt P15823); assay: Radioligand binding 203200 Adrenergic α1B
T4 construct: 203200
Description: as §2

Adrenergic α1D = molecular target: T5, Adrenergic α1D (Homo sapiens, UniProt P25100); assay: Radioligand binding 203400 Adrenergic α1D; details: hum
T5 construct: host or cells: HEK-293
Description: as §2

Adrenergic α2A = Adrenergic α2A (Homo sapiens, UniProt P08913); assay: Radioligand binding Adrenergic α2A; details: hum
Chain of Adrenergic α2A (P08913 whole entry): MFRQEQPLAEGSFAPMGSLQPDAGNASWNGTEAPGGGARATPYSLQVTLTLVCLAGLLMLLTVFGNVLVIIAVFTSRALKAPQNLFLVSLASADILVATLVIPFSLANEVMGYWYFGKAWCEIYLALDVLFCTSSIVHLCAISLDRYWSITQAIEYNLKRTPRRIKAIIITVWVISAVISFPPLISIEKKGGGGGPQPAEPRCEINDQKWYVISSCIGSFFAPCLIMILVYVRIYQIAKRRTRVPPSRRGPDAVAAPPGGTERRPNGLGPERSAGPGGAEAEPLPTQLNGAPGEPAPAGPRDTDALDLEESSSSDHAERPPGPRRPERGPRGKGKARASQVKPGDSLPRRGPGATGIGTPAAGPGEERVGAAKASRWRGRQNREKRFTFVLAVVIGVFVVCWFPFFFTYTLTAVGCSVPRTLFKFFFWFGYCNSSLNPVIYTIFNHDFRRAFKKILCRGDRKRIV

Adrenergic α2B = Adrenergic α2B (Homo sapiens, UniProt P18089); assay: Radioligand binding Adrenergic α2B; details: hum
Chain of Adrenergic α2B (P18089 whole entry): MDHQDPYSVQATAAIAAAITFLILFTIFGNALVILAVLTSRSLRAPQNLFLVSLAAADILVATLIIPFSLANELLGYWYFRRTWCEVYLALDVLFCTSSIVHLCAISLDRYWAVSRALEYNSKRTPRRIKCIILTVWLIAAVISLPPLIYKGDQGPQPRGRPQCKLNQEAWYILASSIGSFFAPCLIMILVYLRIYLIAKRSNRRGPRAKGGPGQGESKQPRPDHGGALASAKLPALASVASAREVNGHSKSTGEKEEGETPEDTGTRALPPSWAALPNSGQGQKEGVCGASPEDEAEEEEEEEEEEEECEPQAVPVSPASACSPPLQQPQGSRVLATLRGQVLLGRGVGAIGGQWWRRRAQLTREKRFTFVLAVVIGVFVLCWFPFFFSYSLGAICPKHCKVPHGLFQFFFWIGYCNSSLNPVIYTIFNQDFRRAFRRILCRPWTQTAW

Adrenergic α2C = Adrenergic α2C (Homo sapiens, UniProt P18825); assay: Radioligand binding Adrenergic α2C; details: hum
Chain of Adrenergic α2C (P18825 whole entry): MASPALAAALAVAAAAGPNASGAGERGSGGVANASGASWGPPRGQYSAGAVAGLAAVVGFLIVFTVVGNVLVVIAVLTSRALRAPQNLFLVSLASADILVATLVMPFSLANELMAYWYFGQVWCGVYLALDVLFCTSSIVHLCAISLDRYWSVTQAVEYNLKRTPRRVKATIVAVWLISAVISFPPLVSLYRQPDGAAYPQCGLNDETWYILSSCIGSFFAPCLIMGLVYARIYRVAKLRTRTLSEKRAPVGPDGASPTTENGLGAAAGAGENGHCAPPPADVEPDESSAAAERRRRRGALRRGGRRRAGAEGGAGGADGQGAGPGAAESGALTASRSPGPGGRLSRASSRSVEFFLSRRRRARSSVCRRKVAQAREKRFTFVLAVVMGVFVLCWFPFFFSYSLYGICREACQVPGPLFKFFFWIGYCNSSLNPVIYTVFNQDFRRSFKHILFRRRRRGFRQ

[4] = test system: Adrenergic α1* Non-Selective; assay: Radioligand binding 203500 Adrenergic α1 Non-Selective; details: rat
Description: (§3) Receptor binding methods, α-adrenergic nonselective, are provided below.

[5] = test system: Adrenergic α2* Non-Selective; assay: Radioligand binding 203900 Adrenergic α2 Non-Selective; details: rat
Description: as §3

[6] = Oral bioavailability in dogs; format: in vivo; details: dog, plasma, Beagle dogs
[7] = Oral bioavailability in monkeys; format: in vivo; details: cynomolgus monkey, plasma
Brain exposure in rats = format: in vivo; details: one hour after 30 μmol/kg po
Protocol: Brain exposure was measured in rats. For concentrations of 11-piperazin-1-yldibenzo[b,f][1,4]thiazepine in brain, rats were dosed either po or iv (n=3 per dose route). At one hour after compound administration, blood and brain samples were obtained and then processed for analysis using HPLC/MS to measure concentrations of 11-piperazin-1-yldibenzo[b,f][1,4]thiazepine.

immobility [8] = assay: Mouse forced swim test (FST); format: in vivo; details: 15 minutes prior
Protocol: The mouse forced swim test (FST) has been used to assess antidepressant potential of novel compounds (Porsolt; Lucki). Methods: Mice were placed in cylinders of water (25.0° C.±1.5° C.) for 6 minutes. The amount of immobility was quantified during the last 4 min of each session. The experimental observer was blind to the treatment conditions. […] Imipramine 45.0 mg/kg and citalopram 15.0 mg/kg were measured as the salt and administered ip 60 minutes prior to the behavioral session.

[9] = molecular target: Transporter, Norepinephrine (NET) (Homo sapiens, UniProt P23975); assay: Radioligand binding assay, norepinephrine transporter
Chain of Transporter, Norepinephrine (NET) (P23975 whole entry): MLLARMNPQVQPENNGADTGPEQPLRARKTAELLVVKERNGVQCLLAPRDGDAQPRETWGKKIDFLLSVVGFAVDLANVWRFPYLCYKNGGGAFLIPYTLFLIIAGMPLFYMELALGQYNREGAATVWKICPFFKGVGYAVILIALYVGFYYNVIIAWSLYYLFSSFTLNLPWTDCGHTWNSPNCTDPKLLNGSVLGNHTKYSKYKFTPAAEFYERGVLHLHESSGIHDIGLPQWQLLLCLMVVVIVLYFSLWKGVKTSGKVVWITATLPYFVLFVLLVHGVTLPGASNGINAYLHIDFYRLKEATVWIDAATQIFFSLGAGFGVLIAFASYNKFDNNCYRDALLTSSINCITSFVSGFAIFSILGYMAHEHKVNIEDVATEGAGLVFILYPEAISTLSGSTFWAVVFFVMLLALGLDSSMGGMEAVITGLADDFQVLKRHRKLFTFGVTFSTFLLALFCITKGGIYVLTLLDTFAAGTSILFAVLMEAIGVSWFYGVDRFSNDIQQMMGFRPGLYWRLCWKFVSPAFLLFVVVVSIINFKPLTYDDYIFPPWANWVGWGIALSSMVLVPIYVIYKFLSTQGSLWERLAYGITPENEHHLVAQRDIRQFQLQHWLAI
Protocol: The following examples set forth parameters for the radioligand binding assay that was carried out.

Uptake, Norepinephrine = Uptake, Norepinephrine (Homo sapiens, UniProt P23975); assay: Functional assay measuring norepinephrine uptake; format: cell-based; details: [3H]Norepinephrine uptake, MDCK cells; read-out: EC50/IC50
Chain of Uptake, Norepinephrine (P23975 whole entry): as above
Protocol: The following examples set forth parameters for the functional assay measuring norepinephrine uptake that was carried out.

D1 receptors = molecular target: T6, D1 receptors (Homo sapiens, UniProt P21728); assay: PET scans of primate subjects, D1; format: in vivo; details: preliminary PET
T6 construct: from tissue; host or cells: brain of living primates (PET)
T6 sequence (P21728 whole entry): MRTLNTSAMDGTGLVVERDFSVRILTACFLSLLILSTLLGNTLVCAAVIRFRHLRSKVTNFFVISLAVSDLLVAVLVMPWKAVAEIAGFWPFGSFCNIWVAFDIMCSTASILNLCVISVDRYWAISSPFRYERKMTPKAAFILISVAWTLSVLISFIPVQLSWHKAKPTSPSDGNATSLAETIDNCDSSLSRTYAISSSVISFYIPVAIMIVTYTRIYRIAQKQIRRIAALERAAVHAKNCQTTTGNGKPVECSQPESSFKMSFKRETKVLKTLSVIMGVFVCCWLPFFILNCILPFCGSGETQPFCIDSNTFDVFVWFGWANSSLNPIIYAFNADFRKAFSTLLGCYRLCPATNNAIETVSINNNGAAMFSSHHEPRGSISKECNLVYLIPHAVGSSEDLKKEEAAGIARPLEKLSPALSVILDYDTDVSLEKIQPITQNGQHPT
Description: (§4) The compound of Formula I is a dibenzothiazepine that has shown antidopaminergic activity.

D2 receptors = D2 receptors (Homo sapiens, UniProt P14416); assay: PET scans of primate subjects, D2; format: in vivo; details: preliminary PET
Chain of D2 receptors (P14416 whole entry): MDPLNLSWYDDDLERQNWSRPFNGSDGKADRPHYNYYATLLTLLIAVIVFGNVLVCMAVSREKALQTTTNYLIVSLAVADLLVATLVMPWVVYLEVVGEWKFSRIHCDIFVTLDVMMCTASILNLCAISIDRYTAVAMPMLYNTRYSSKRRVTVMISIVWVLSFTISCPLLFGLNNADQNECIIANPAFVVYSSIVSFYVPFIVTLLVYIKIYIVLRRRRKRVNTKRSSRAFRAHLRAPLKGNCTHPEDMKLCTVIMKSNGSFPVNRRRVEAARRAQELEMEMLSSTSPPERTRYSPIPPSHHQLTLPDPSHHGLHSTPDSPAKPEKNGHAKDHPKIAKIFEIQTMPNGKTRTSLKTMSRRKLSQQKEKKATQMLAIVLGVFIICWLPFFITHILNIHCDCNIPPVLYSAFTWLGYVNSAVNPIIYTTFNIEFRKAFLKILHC

5-HT2A receptors = molecular target: T7, 5-HT2A receptors (Homo sapiens, UniProt P28223); assay: PET scans of primate subjects, 5-HT2A; format: in vivo; details: preliminary PET
T7 construct: from tissue; host or cells: brain of living primates (PET)
Description: as §4

5-HT1A receptors = molecular target: T8, 5-HT1A receptors (Homo sapiens, UniProt P08908); assay: PET scans of primate subjects, 5-HT1A; format: in vivo; details: preliminary PET
T8 construct: from tissue; host or cells: brain of living primates (PET)
T8 sequence (P08908 whole entry): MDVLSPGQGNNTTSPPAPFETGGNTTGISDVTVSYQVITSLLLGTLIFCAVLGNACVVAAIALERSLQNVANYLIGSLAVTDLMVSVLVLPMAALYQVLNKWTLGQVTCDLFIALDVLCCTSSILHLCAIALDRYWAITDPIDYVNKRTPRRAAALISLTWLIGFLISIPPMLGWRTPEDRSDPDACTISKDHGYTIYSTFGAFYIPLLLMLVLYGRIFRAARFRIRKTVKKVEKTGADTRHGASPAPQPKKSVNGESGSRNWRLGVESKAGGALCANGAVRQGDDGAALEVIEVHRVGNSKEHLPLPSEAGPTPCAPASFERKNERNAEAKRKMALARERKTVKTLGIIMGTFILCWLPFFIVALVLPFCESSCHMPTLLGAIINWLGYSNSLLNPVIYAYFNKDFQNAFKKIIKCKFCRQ
Description: as §4

5HT Transporter = molecular target: T9, 5HT Transporter (Homo sapiens, UniProt P31645); assay: PET scans of primate subjects, 5HT Transporter; format: in vivo; details: preliminary PET
T9 construct: from tissue; host or cells: brain of living primates (PET)
T9 sequence (P31645 whole entry, species assumed): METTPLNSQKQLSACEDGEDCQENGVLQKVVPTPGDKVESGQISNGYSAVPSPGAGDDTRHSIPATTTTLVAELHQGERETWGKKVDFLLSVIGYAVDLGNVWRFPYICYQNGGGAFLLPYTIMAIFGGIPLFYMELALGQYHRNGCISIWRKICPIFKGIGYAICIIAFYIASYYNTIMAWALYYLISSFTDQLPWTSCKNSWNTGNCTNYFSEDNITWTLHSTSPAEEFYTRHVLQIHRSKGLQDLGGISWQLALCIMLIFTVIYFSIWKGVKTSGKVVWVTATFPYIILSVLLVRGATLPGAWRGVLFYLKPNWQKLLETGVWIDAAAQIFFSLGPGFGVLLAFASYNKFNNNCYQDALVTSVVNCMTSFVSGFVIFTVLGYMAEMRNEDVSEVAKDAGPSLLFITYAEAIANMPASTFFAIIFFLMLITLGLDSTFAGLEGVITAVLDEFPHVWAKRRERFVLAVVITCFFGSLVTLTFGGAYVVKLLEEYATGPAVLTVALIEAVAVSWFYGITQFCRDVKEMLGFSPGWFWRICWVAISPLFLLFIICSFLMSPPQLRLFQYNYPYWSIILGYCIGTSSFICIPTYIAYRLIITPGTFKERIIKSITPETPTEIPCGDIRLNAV
Description: as §4

[10] = 30 mg/kg p.o., 60 minutes prior

## Cl.Cl.c1ccc2c(c1)N=C(N1CCNCC1)c1ccccc1S2 [11-piperazin-1-yldibenzo[b,f][1,4]thiazepine, dihydrochloride salt]
[1]
  Ki: 27 nM
Dopamine D1 receptor
  Ki: 1490 nM
Dopamine D2 receptor
  Ki: 234 nM
Apomorphine climbing
  in vivo antipsychotic activity, apomorphine mouse assay: not found to be efficacious

## CNCCC(Oc1ccc(C(F)(F)F)cc1)c1ccccc1 (centres unmarked) [fluoxetine, reference compound]
Immobility [2]; [10]
  reduction of immobility relative to vehicle control group: more than ½

## c1ccc2c(c1)N=C(N1CCNCC1)c1ccccc1S2 [11-piperazin-1-yldibenzo[b,f][1,4]thiazepine]
Apomorphine climbing
  in vivo antipsychotic activity, apomorphine mouse assay: not shown to be efficacious
[3]
  in vivo antipsychotic activity, D-amphetamine locomotor activity test: not found to be efficacious
[3]; listed as Formula I
  in vivo antipsychotic activity, D-amphetamine locomotor activity test: not shown to be efficacious
Adrenergic α1A
  n (Hill coefficient): 1.03 ± 0.089
Adrenergic α1B
  n (Hill coefficient): 1.1 ± 0.024
Adrenergic α1D
  n (Hill coefficient): 0.984 ± 0.111
Adrenergic α2A
  n (Hill coefficient): 0.969 ± 0.012
Adrenergic α2B
  n (Hill coefficient): 0.902 ± 0.055
Adrenergic α2C
  n (Hill coefficient): 1.1 ± 0.079
[4]; 0.1 μM
  % INH.: 61%
[4]
  IC50: 69.3 nM
  Ki: 37.2 nM
[5]; 10 μM
  % INH.: 73%
[5]
  IC50: 1410 nM
  Ki: 1290 nM
[6]
  bioavailability: 42%
[7]
  bioavailability: 37%
Brain exposure in rats
  average concentration in brain tissue: 2240 nmol/g
Immobility [8]; 10.0 mg/kg sc
  effect on immobility in FST: antidepressant effects in this assay comparable to imipramine
Immobility [2]; 10.0 mg/kg s.c.
  reduction of immobility relative to vehicle control group: more than ½
Immobility [2]; [10]
  reduction of immobility relative to vehicle control group: more than ½
Immobility [2]; 2.0, 5.0 or 10.0 mg/kg s.c., 15 minutes prior
  effect on duration of immobility: reduced immobility at all doses tested
[9]
  inhibition at 10 µM: 97%
Uptake, Norepinephrine
  IC50: 13.4 nM
D1 receptors
  receptor occupancy (PET), D1: occupies
D2 receptors
  receptor occupancy (PET), D2: occupies
5-HT2A receptors
  receptor occupancy (PET), 5-HT2A: occupies
5-HT1A receptors
  receptor occupancy (PET), 5-HT1A: occupies
5HT Transporter
  occupancy (PET), 5HT Transporter: occupies

## OCCOCCN1CCN(C2=Nc3ccccc3Sc3ccccc32)CC1 [Quetiapine, quetiapine, reference compound]
Immobility [8]; 5.0, 10.0 and 20.0 mg/kg sc
  effect on immobility in FST: no effect

Source: US20100093700A1, “Methods of Treating Mood Disorders” (priority 2007, published 2010)
